From PMC9137581, “Identification of a Novel Class of Anti-Melanogenic Compounds, (Z)-5-(Substituted benzylidene)-3-phenyl-2-thioxothiazolidin-4-one Derivatives, and Their Reactive Oxygen Species Scavenging Activities” (Antioxidants, 2022)

What was measured:
tyrosinase [1] = assay: qRT-PCR of tyrosinase mRNA; assay type: cell-based, murine; conditions: versus non-treated controls, B16F10 cells
Protocol: (§1) The total RNAs from the cells were purified using the RiboEx Total RNA solution (GeneAll Biotechnology, Seoul, Korea) and the cDNA was synthesized from the total RNA (2 µg) using SuPrimeScript RT Premix with random hexamer (GeNet Bio, Daejeon, Korea), according to the manufacturers’ instructions. Real-time qPCR was performed using SensiFASTTM SYBR® No-ROX dye (Bioline, London, UK) and a CFX Connect System (Bio-Rad Laboratories, Hercules, CA, USA). The qRT-PCR primers that are specifically for tyrosinase, TRP-1, TRP-2, and β-actin were obtained from Bioneer Inc. (Daejeon, Korea). The relative gene expressions were calculated using the standard curve method and β-actin as the internal control.

tyrosinase [2] = assay: Western blot of cytosolic tyrosinase protein; assay type: cell-based, murine; conditions: 2.5–20 µM, 24 h, cytosolic fraction, B16F10 cells
Protocol: B16F10 cells were treated with five concentrations (0, 2.5, 5, 10, and 20 µM) of analog 2 for 24 h, washed twice with cold PBS, and then harvested. Pellets were then suspended in buffer A [NaBu, β-glycerophosphate, 1 M HEPES, 100 mM MgCl, 500 mM DTT, 100 mM NaF, 10 mM Na-orthovanadate, pepstatin, aprotinin, leupeptin, 1% NP-40, and PMSF], incubated on ice for 20 min, and then centrifuged at 12,000 rpm for 10 min at 4 °C. The supernatants that were obtained contained cytosolic fractions. The pellets were resuspended in buffer B [NaBu, β-glycerophosphate, 1 M HEPES, 5 M NaCl, 10 mM Na-orthovanadate, pepstatin, aprotinin, leupeptin, 100 mM NaF, 100 mM EDTA, and PMSF], incubated on ice for 30 min, and then centrifuged at 12,000 rpm for 20 min at 4 °C. The resultant supernatants contained nuclear fractions.
Protein concentrations were determined using a BCA™ protein assay kit (Pierce, Rockford, IL, USA). Briefly, lysed samples were boiled for 10 min in gel-loading buffer (0.125 M Tris-HCl, pH 6.8, 4% SDS, 10% 2-mercaptoethanol, and 0.2% bromophenol blue) at a volume ratio of 1:1. […] The western blot data were quantified using CS Analyser 3.2 (Densitograph) image analysis software (http://www.attokorea.co.kr, accessed on 4 March 2022).

TRP-1 = assay: qRT-PCR of TRP-1 mRNA; assay type: cell-based, murine; conditions: versus non-treated controls, B16F10 cells
Protocol: as §1

TRP-2 = assay: qRT-PCR of TRP-2 mRNA; assay type: cell-based, murine; conditions: versus non-treated controls, B16F10 cells
Protocol: as §1

[3] = Calculated log p (ChemDraw Ultra 12.0); conditions: from calculated log p 3.16 vs. –2.45
Text: In order to determine how well the (Z)-BPTT analogs are absorbed by skin, their log p (partition coefficient) values were examined using ChemDraw Ultra Ver. 12.0.

| partition coefficient relative to kojic acid [3] | Structure (SMILES) | tyrosinase mRNA expression level (tyrosinase [1]) | tyrosinase protein level (tyrosinase [2]) | TRP-1 mRNA expression level (TRP-1) | TRP-2 mRNA expression level (TRP-2) |
| --- | --- | --- | --- | --- | --- |
| 10^5 fold | O=C1/C(=C/c2ccc(O)c(O)c2)SC(=S)N1c1ccccc1 [Analog 2, (Z)-5-(3,4-Dihydroxybenzylidene)-3-phenyl-2-thioxothiazolidin-4-one] | significantly and concentration-dependently reduced | significantly and concentration-dependently reduced | significantly and concentration-dependently reduced | significantly and concentration-dependently reduced |
| 10^5 fold | O=C1/C(=C/c2ccc(O)cc2O)SC(=S)N1c1ccccc1 [Analog 3, (Z)-5-(2,4-Dihydroxybenzylidene)-3-phenyl-2-thioxothiazolidin-4-one] | – | – | – | – |
